Measurements published in patent EP0460883B1, “Process for beta-hydroxy-alpha-amino acids” (THE UNIVERSITY OF NOTRE DAME DU LAC, priority 1990, dated 1991).

system: serine hydroxymethyltransferase (SHMT); assay: Conversion of aldehyde substrates and glycine to β-hydroxy-α-amino acids by SHMT (HPLC assay); assay type: biochemical, corn; set-up: key: + = conversion; - = no detectable conversion; details: as the other substrates, but tetrahydrofolate was present
Method: (§1) The following Table 1 lists representative aldehyde substrates which were converted in the process to β-hydroxy-α-amino acids with SHMT from two sources. The conversion of the substrates in Table 1 was carried out by incubating the substrate and glycine with SHMT under the conditions of the process. A number of the process conditions used were common to all of the substrates and are detailed in the following paragraphs. Wherever exceptions occurred they are noted in each instance.
(§2) The incubations were carried out in 10 mM phosphate buffer, pH 7.3 containing pyridoxal 5′-phosphate at a concentration of about 80 µM. All solutions were prepared from distilled, deionized water for best results. The conversions were carried out at about 37°C in sealed, 500 µL polypropylene micro-centrifuge vials in a constant-temperature water bath. The vials were protected from light except when removed from the water bath for removal of aliquots for analysis. With all conversions an enzyme blank incubation was carried out in parallel with the SHMT incubation. The total volume of the incubation mixture was typically about 200 µL. The conditions in the blank were identical to those of the incubation mixture except for the absence of the enzyme.
(§3) The process can be monitored for production of the β-hydroxy-α-amino acid by removing aliquots from the incubation mixture from time to time and assaying the samples by HPLC separation and fluorescence detection of o-phthalaldehyde derived isoindoles of all primary amine compounds present in the mixture. The assay procedure is described by Jones, B.N.; Gilligan, J. P., J. Chrom. 1983, 266, 471; Jones, B. N. et al., J. Liq. Chrom. 1981, 4,565, and Simons, Jr., S. S. et al., J. Am Chem. Soc. 1976, 98, 7098. HPLC analysis of both the incubation mixture and the enzyme blank allowed determination of which peak(s) on the chromatograms could be assigned to enzyme products.
All of the following procedures were carried out at 4°C. Washed 5-7 day old corn seedlings were homogenized in a Waring blender in 100 mM potassium monohydrogen phosphate containing 1 mM disodium ethylenediaminetetraacetate (EDTA), 1 mM dithiothreitol, and 125 µM of pyridoxal 5'-phosphate. The mix contained approximately 960 g of seedlings per liter. The homogenate was filtered through cheese cloth and the filtrate was subjected to ammonium sulfate precipitation. The protein which precipitated with 35-50% saturation in ammonium sulfate upon centrifuging at 13,800 x g for 40 min. was dissolved in 10 mM phosphate buffer, pH 7.8, containing […] pyridoxal 5'-phosphate and 1 mM EDTA. The solution was dialyzed and concentrated to 5-15 mg of protein/ml in the same buffer without EDTA present. Assay for aldolase activity of the protein consisted of a coupled system between the aldolase-catalyzed retroaldol of L-allo-threonine with the NADH (reduced form of nicotinamide adenine dinucleotide) dependent reduction of the resulting acetaldehyde by yeast alcohol dehydrogenase (ADH). Specific activity averaged 78 milliunits/mg of protein. One unit of enzyme activity is defined as that amount of enzyme required to cause a change of one optical density unit (at 340 nm) per minute at room temperature in the presence of ADH, 120 mM L-allo-threonine, 125 µM PLP, and 120 µM NADH in 100 mM phosphate buffer, pH 7.5.

SMILES	Aldehyde (RCHO) Substrates for SHMT, Enzyme Corn Seedlings
CC(=O)C=O [-C(O)CH3, pyruvaldehyde]	+

same assay, conditions: incubation with glycine, 10 mM phosphate buffer pH 7.3, pyridoxal 5′-phosphate about 80 µM, about 37°C

SMILES	Aldehyde (RCHO) Substrates for SHMT, Enzyme Corn Seedlings
O=CC(=O)O [-CO2H]	-
CC=O [-CH3, acetaldehyde]	+
O=CCOCc1ccccc1 [-CH2OCH2C6H5]	+
COC(=O)CCCC=O [-CH2CH2CH2CO2CH3, Glutaric semialdehyde methyl ester]	+
O=Cc1ccco1 [Example 2-furyl, 2-furfural]	+
O=Cc1ccccc1 [Example C6H5, benzaldehyde]	-
CCC=O [-CH2CH3, propionaldehyde]	+
O=CCCc1ccco1	-
COC(=O)CCC=O [-CH2CH2CO2CH3, succinic semialdehyde methyl ester]	+

target: T1, serine hydroxymethyltransferase (SHMT) (Oryctolagus cuniculus, UniProt P07511); assay: as above; assay type: biochemical, rabbit; set-up: key: + = conversion; - = no detectable conversion; details: as the other substrates, but VO3- (metavanadate) was present
T1 construct: Three such sources are rabbit liver (LaVerne Schirch and Merle Mason, J. Biol. Chem., Vol. 237, No. 8, August 1962); from tissue; host or cells: rabbit liver
T1 sequence (P07511 2-484 limits assumed): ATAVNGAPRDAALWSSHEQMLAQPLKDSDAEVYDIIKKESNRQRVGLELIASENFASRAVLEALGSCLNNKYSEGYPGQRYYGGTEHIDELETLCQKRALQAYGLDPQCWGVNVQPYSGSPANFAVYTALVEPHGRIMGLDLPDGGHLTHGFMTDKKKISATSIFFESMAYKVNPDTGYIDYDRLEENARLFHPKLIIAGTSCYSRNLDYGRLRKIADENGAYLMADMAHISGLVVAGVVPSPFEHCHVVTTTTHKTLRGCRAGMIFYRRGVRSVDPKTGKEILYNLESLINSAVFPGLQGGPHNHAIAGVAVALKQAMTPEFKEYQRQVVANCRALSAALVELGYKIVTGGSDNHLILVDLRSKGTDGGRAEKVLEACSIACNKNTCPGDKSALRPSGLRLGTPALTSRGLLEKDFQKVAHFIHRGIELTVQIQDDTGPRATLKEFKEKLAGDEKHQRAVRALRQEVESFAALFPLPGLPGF
Method: as §1, §2, §3

SMILES	Aldehyde (RCHO) Substrates for SHMT, Enzyme Rabbit Liver
CC(=O)C=O [-C(O)CH3, pyruvaldehyde]	+

same assay, conditions: incubation with glycine, 10 mM phosphate buffer pH 7.3, pyridoxal 5′-phosphate about 80 µM, about 37°C

Aldehyde (RCHO) Substrates for SHMT, Enzyme Rabbit Liver	SMILES
-	O=CC(=O)O [-CO2H]
+	CC(C)OC(=O)CCC=O [-CH2CH2CO2(CH3)2, succinic semialdehyde isopropyl ester]
+	O=CCCCOC=O [-CH2CH2CH2OCHO, O-formyl 4-hydroxybutanal]
+	COC(=O)CCCC=O [-CH2CH2CH2CO2CH3, Glutaric semialdehyde methyl ester]
+	O=CCCc1ccco1
+	COC(=O)CCC=O [-CH2CH2CO2CH3, succinic semialdehyde methyl ester]

SMILES	Aldehyde (RCHO) Substrates for SHMT, Enzyme Rabbit Liver
CC=O [-CH3, acetaldehyde]	+
CCCC=O [-CH2CH2CH3, n-butanal]	+
O=Cc1ccco1 [Example 2-furyl, 2-furfural]	+
O=Cc1ccccc1 [Example C6H5, benzaldehyde]	+
